# Assay results reported in US10028956B2, “Methods of treating various cancers using an AXL/cMET inhibitor in combination with other agents” (Ignyta, Inc., priority 2013, dated 2018).
# Marks after values point to notes of the source that are not given here.
# What was measured:
# [1] = test system: CTG-0159 primary NSCLC human TumorGraft; assay: NSCLC TumorGraft model CTG-0159; format: in vivo, mice; settings: CTG-0159, 14 days
# Description: (§1) Methods (for the experiments shown in FIGS. 10 and 11) • Female immunocompromised nu/nu mice (Harlan) between 6-9 weeks of age were housed on irradiated papertwist-enriched ⅛″ corncob bedding (Sheperd) in individual HEPA ventilated cages (Innocage® IVC, Innovive USA) on a 12-hour light-dark cycle at 68-74° F. (20-23° C.) and 30-70% humidity. Animals were fed water ad libitum (reverse osmosis, 2 ppm Cl2) and an irradiated Test rodent diet (Teklad 2919) consisting of 19% protein, 9% fat, and 4% fiber. • Tumor Models: Champions TumorGraft models of NSCLC are owned by Champions Oncology. In this study, animals were implanted unilaterally on the right flank with tumor fragments harvested from host animals. […] Erlotinib (manufacturer: OSI Pharmaceuticals; National Drug Code: 50242-062-01; Lot #: US0002) was formulated using 100% PEG-400 as the vehicle according to manufacturer's specifications.
# Efficacy measurements: Beginning Day 0, tumor dimensions were measured twice weekly by digital caliper (Fowler Ultra-Cal IV) and data including individual and mean estimated tumor volumes (Mean TV±SEM) were recorded for each group; tumor volume was calculated using the formula TV=width^2×length×0.52. At study completion, percent tumor growth inhibition (% TGI) values were calculated and reported for each treatment group (T) versus control (C) using initial (i) and final (f) tumor measurements by the formula: % TGI=1−Tf−Ti/Cf−C; single agent or combination therapies resulting in a TGI>50 at study completion are considered active in the tested model at the evaluated treatment regimen according to NCI guidelines. […] If the PR persisted until study completion, percent tumor regression (% TR) was determined using the formula: % TR=1−Tf/Ti×100; a mean value was calculated if multiple PR mice occurred in one group. […] Statistical differences in tumor volume were determined using a two-tailed One-Way Analysis of Variance (ANOVA) followed by the Dunett's multiple comparisons test comparing treated groups with control and combinations with standard agent alone when possible. […]
# [2] = test system: CTG-0165 erlotinib-insensitive primary NSCLC human TumorGraft; assay: NSCLC TumorGraft model CTG-0165; format: in vivo, mice; settings: for % Tumor Growth Inhibition: CTG-0165, 37 days
# Description: as §1
# (§2) Efficacy measurements: Beginning Day 0, tumor dimensions were measured twice weekly by digital caliper (Fowler Ultra-Cal IV) and data including individual and mean estimated tumor volumes (Mean TV±SEM) were recorded for each group; tumor volume was calculated using the formula TV=width^2×length×0.52. At study completion, percent tumor growth inhibition (% TGI) values were calculated and reported for each treatment group (T) versus control (C) using initial (i) and final (f) tumor measurements by the formula: % TGI=1−Tf−Ti/Cf−C; single agent or combination therapies resulting in a TGI>50 at study completion are considered active in the tested model at the evaluated treatment regimen according to NCI guidelines. Individual mice reporting a tumor volume ≤50% of the Day 0 measurement for two consecutive measurements over a seven day period were considered partial responders (PR). If the PR persisted until study completion, percent tumor regression (% TR) was determined using the formula: % TR=1−Tf/Ti×100; a mean value was calculated if multiple PR mice occurred in one group. Individual mice lacking palpable tumors (<4×4 mm^2 for two consecutive measurements over a seven day period) were classified as complete responders (CR); a CR that persisted until study completion was considered a tumor-free survivor (TFS). TFS animals are excluded from efficacy calculations. Statistical differences in tumor volume were determined using a two-tailed One-Way Analysis of Variance (ANOVA) followed by the Dunett's multiple comparisons test comparing treated groups with control and combinations with standard agent alone when possible. All data collected in this study was managed electronically and stored on a redundant server system.
# [3] = test system: CTG-0192 erlotinib-sensitive NSCLC TumorGraft; assay: NSCLC TumorGraft model CTG-0192; format: in vivo, mice; settings: for % Tumor Growth Inhibition: CTG-0192, 32 days
# Description: as §1, §2
# [4] = Tolerability / body weight in the xenograft studies; format: in vivo; settings: in all of the above studies
# PK in dog = settings: in vivo
# [5] = test system: GTL-16 gastric carcinoma xenografts; assay: Anti-tumor efficacy in GTL-16 gastric carcinoma xenografts; format: in vivo, mice; settings: 10 and 30 mg/kg oral qd
# Text: The human gastric cancer cell line, GTL-16 was purchased from ATCC (American Tissue Culture Collection, Manassas, Va.) and cultured in DMEM medium with 10% fetal bovine serum (FBS, Cat# SH3007003, Hyclone Laboratory Inc, Logan, Utah). Female Nu/Nu mice (6-8 weeks, Charles River Laboratory, Wilmington, Mass.) were maintained 5/cage in microisolator units on a standard laboratory diet (Teklad Labchow, Harlan Teklad, Madison, Wis.). Animals were housed under humidity- and temperature-controlled conditions and the light/dark cycle was set at 12-hour intervals. Mice were quarantined at least 1 week prior to experimental manipulation. […] The mice were then monitored daily. […] The length (L) and width (W) of each tumor was measured with a vernier caliper and the mouse body weight was determined every 2-3 days. The tumor volumes were then calculated with the formula of 0.5236*L*W*(L+W)/2. […] Plasma and tumor samples were obtained at 2 hours post final dose at each dose level, and the compound levels in plasma and tumor lysates were measured by LC-MS/MS. The TGI values were calculated at the end of study by comparing the tumor volumes (TV) of each CEP-40783-treatment group with those of vehicle-treated group with the following formula: 1-(the last day TV of compound-treated group/the last day TV of vehicle-treated group).
# [6] = test system: EBC-1 Human NSCLC xenografts; assay: Discontinuous and alternate dosing schedules in EBC-1 xenografts; format: in vivo, mice; settings: 10 mg/kg oral
# Description: After a period of 7 days of continuous dosing, animals were then switched to either a 7 day on/7 day off 10 mg/kg qd dosing regimen, or intermittent twice weekly (q2d) or thrice weekly (q3d) oral dosing at a 10 mg/kg qd dose for a total of 21 days.
# [7] = intravenous, 0.5 mg/kg i.v. and p.o.
compound,measurement,setting,value
"COc1cc2nccc(Oc3ccc(NC(=O)c4cn(C(C)C)c(=O)n(-c5ccc(F)cc5)c4=O)cc3F)c2cc1OC [CEP-40783, 3-(4-Fluorophenyl)-1-isopropyl-2,4-dioxo-1,2,3,4-tetrahydropyrimidine-5-carboxylic acid [4-(6,7-dimethoxyquinolin-4-yloxy)-3-fluorophenyl]-amide]",% Tumor Growth Inhibition,[1]; 10 mg/kg po/qd,46%*
same,% Tumor Growth Inhibition,[1]; 30 mg/kg po/qd,66%*†
same,% Tumor Growth Inhibition,[2]; 10 mg/kg po/qd,116%*†
same,% Tumor Growth Inhibition,[2]; 30 mg/kg po/qd,118%*†
same,efficacy in erlotinib-insensitive TumorGraft,"[2]; CTG-0165, oral 10 mg/kg and 30 mg/kg",tumor regressions
same,acquired resistance during the treatment phase,[3]; CTG-0192,no acquired resistance
same,% Tumor Growth Inhibition,[3]; 10 mg/kg po/qd,85%*
same,% Tumor Growth Inhibition,[3]; 30 mg/kg po/qd,71%*
same,"tumor response, single agent","[3]; CTG-0192, also after dosing discontinued (day 34)",significant TGI/tumor stasis was maintained even after dosing was discontinued
same,"tolerability, body weight",[4],well tolerated with no compound-related body weight loss
same,Cmax,PK in dog; 0.5 mg/kg i.v. and p.o.,1170 ng/mL
same,Vd,PK in dog; [7],1.3 L/kg
same,clearance,PK in dog; [7],0.5 mL/min/kg
same,half-life,"PK in dog; iv, 0.5 mg/kg i.v., read-out: t1/2 i.v. (converted)",27.6 h
same,bioavailability,"PK in dog; oral, 0.5 mg/kg i.v. and p.o.",100%
same,AUC(0-t),"PK in dog; po, 0.5 mg/kg p.o.",14400 ng·h/mL
same,anti-tumor efficacy (tumor volume),[5],tumor stasis and regressions
same,partial responses,[6]; every 2 days (q2d),40%
same,partial responses,[6]; every 3 days (q3d),70%
same,"complete tumor regressions, % of animals",[6]; q2d dosing group,20%
same,partial responses,"[6]; qd, 7 days on/7 days off (qd×7)",40%
same,"complete tumor regressions, % of animals",[6]; qd×7 dosing group,10%
